Where two headings read alike, the source gives them in different places.
How the values were obtained:
[1] = target: T1, human CD40-CD40L (Homo sapiens, UniProt P29965); assay: Cell-free ELISA-type CD40-CD40L binding inhibition assay
T1 construct: purchased Enzo Life Sciences (San Diego, Calif.)
T1 sequence (P29965 116-261 limits assumed): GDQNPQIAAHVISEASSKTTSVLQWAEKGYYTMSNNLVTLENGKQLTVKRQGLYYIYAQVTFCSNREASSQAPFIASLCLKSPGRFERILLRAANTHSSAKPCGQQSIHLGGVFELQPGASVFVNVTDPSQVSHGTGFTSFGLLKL
Protocol: Compounds according to the disclosure were assessed for their ability to inhibit the binding of tagged ligands to plate-bound receptors using ELISA-type 96-well plate-based cell-free assays as described in the literature (see Margolles-Clark et al, J Mol Med 87:1133-1143 (2009); Margolles-Clark et al., Chem Biol Drug Des 76:305-313 (2010); Song et al., Br J Pharmacol 171:4955-4969 (2014); and Ganesan et al., Biochem Pharmacol 81:810-818 (2011)).
Recombinant receptors (hCD40:Fc, TNF-R1:Fc) and tagged ligands (hCD154, MegaCD40L, and TNF-α), were obtained from Enzo Life Sciences (San Diego, Calif.). Microtiter plates (Nunc F Maxisorp; 96-well) were coated overnight at 4° C. with 100 μL/well of Fc chimeric receptors diluted in PBS 7.2. This was followed by blocking with 200 μL/well of blocking solution (PBS 7.2, 0.05% Tween-20, 1% BSA) for 1 hour at room temperature. […] Either anti-FLAG-HRP or streptavidin-HRP conjugate was used to detect the bound FLAG-tagged or biotinylated ligand, respectively. Plates were washed three times before the addition of 120 μL/well of HRP substrate TMB (3, 3′, 5, 5′-tetramethylbenzidine) and kept in the dark for 15-30 min. The reaction was stopped using 30 μL 1M H2SO4, and the absorbance was read at 450 nm. Stock solutions of compounds at 10 mM in DMSO were used.
(§1) Typical concentrations used were as follows—receptors: 0.3 μg/mL for CD40, TNF-R1, and RANK; 0.6 μg/mL for BAFF-R, OX40, and 4-1BB; and 2 μg/mL for EGF-R-ligands: 0.02 μg/mL for CD40L, TNFα, and RANKL; 0.2 μg/ml for BAFF, OX40L, 4-1BBL; and 0.3 μg/mL for EGF. Assays were done in duplicate or triplicate per plate and repeated at least three times; the averaged data were normalized and used for data fitting and analysis. Binding data were fitted using the standard log inhibitor versus response model in GraphPad Prism to determine the corresponding IC50 values.

[2] = target: T2, OX40-OX40L (Homo sapiens, UniProt P23510+P43489); assay: Cell-free ELISA-type OX40 binding inhibition assay; conditions: Table 2
T2 sequence (P43489 29-214 limits assumed): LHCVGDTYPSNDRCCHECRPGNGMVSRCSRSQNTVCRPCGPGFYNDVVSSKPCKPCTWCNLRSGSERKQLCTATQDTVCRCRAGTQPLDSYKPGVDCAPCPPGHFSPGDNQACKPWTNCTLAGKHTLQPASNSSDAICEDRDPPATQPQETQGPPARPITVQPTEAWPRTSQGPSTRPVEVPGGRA
T2 sequence (P23510 51-183 limits assumed): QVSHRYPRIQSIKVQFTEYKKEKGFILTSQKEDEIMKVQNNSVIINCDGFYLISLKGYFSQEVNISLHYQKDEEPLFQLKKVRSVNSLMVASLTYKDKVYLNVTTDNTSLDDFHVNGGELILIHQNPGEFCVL
Protocol: as §1

[3] = system: CD40L-induced NF-κB activation in CD40 sensor cells (HEK Blue); assay: Inhibition of CD40L-induced NF-κB activation in CD40 sensor cells (HEK-Blue); assay type: cell-based, human; conditions: CD40L 20 ng/mL, 18 h
Description: Activities of the compounds of the disclosure were confirmed in cell-based assays. As a first example, TNF-R1 and CD40 expressing sensor cells (HEK-Blue; InvivoGen, San Diego, Calif.) were used as described in the literature (see Song et al., Br J Pharmacol 171:4955-4969 (2014) and Cechin et al., Steroids 85:36-43 (2014)).
Cells were maintained in DMEM at 80% confluence for each experiment. Cells were trypsinized and re-suspended in the same medium with 1% FBS and seeded on 96-well microtiter plates at a density of 1×10^5 cells/well in the absence and presence of various concentrations of compounds diluted in the same media. For ligand mediated stimulation, final concentrations of recombinant human TNFα (2 ng/mL) and CD40L (20 ng/mL) were maintained in the wells for this purpose. After 18-hour incubation at 37° C., 20 μL supernatant of each well were taken and added to another 96-well microtiter plate containing 180 μL/well of QUANTI-Blue (InvivoGen, CA). The level of SEAP was determined after 30-minute incubation at 37° C. by reading at 625 nm using a spectrophotometer. […] Data are average±SD (normalized to CD40L-activated cells alone) for n=4 independent experiments with duplicates for each condition.

[4] = system: TNFSF costimulatory interactions; conditions: literature; cited from earlier work
[5] = system: CD40L-induced proliferation of human CD19+ B cells; assay: Inhibition of CD40L-induced human CD19+ B-cell proliferation (BrdU); assay type: cell-based
Protocol: Because CD40 stimulation is an important signal for B cell proliferation, soluble CD40L can concentration-dependently induce the proliferation of human B cells.
Inhibition of cell proliferation was determined in freshly isolated human CD19^+ B cells using the colorimetric cell proliferation ELISA BrdU kit from Roche Applied Science (Indianapolis, Ind.). B cells were isolated from the PBMC as follows. Briefly, cells were washed three times with medium (RPMI 1640) and incubated for 20 min at 4° C. with 20 μL/10^7 cells of anti-CD19 Microbeads (Miltenyi Biotech, Bergisch Gladbach, Germany), according to the MiniMacs protocol (Miltenyi Biotech). Cells were then purified using magnetic columns. […] Cells were cultured in 96 wells plates (100 μL/well) at a cell density of 2×10^5 cells/mL in IMDM medium supplemented with 5% FBS, 100 U/mL penicillin, streptomycin 100 μg/mL, insulin-transferrin-selenium-G (all materials from Invitrogen, San Diego, Calif.) and 10 […] (R&D Systems). […] After 48 h, BrdU labeling solution was added as recommended, and cells were cultivated for another 48 h. Detection of incorporated BrdU was carried out following the instructions of the ELISA BrdU kit.
Data are average±SD for n=3 independent experiments with triplicates for each condition using a standard BrdU assay (Roche).

| Compound | IC50 ([1]; IC50 CD40, Table 2) | inhibition of human CD40-CD40L binding (in words) ([1]; cell-free binding) | IC50 [2] | activity of other small molecule inhibitors (in words) [4] | further results |
| --- | --- | --- | --- | --- | --- |
| Nc1ccc(C(=O)Nc2ccc(-c3ccc(C(=O)Nc4cccc5cccc(S(=O)(=O)O)c45)cc3)cc2)cc1 [Compound 21042] | 301 µM | concentration-dependent inhibition | 12.8 µM |  |  |
| O=C(Nc1ccc(-c2ccc(C(=O)Nc3cccc4cccc(S(=O)(=O)O)c34)cc2)cc1)c1ccc2[nH]nnc2c1 [Compound 21080] | 1 µM | concentration-dependent inhibition | 26.3 µM |  |  |
| COC(=O)c1cccc2c(NC(=O)c3ccc(-c4ccc(NC(=O)c5ccc([N+](=O)[O-])cc5)cc4)cc3)cccc12 [Compound 24541] |  |  | 6560 µM |  | IC50 ([1]; Table 2, read-out: IC50 CD40): 916 µM |
| O=C(Nc1ccc(-c2ccc(C(=O)Nc3ccc(S(=O)(=O)O)c4ccccc34)cc2)cc1)c1ccc([N+](=O)[O-])cc1 [Compound 25041] | 2.3 µM | concentration-dependent inhibition | 7 µM |  |  |
| O=C(Nc1ccc2c(O)c(N=Nc3ccc(N=Nc4ccc(S(=O)(=O)[O-])cc4)cc3S(=O)(=O)[O-])c(S(=O)(=O)[O-])cc2c1)Nc1ccc2c(O)c(N=Nc3ccc(N=Nc4ccc(S(=O)(=O)[O-])cc4)cc3S(=O)(=O)[O-])c(S(=O)(=O)[O-])cc2c1.[Na+].[Na+].[Na+].[Na+].[Na+].[Na+] [DR80, direct red 80, reference compound] |  |  |  | active in the low μM range | IC50 ([1]; cell-free binding, n=3 independent experiments, read-out: IC50, inhibition of the CD40-CD40L interaction): 2.26 µM; IC50 [3]: 42.7 µM |
| O=C([O-])C1=NN(c2ccc(S(=O)(=O)[O-])cc2)C(=O)C1N=Nc1ccc(S(=O)(=O)[O-])cc1.[Na+].[Na+].[Na+] (stereo not shown) [Tartrazine, reference compound] |  | inactive |  |  | inhibition of CD40L-induced human CD19+ B-cell proliferation (in words) [5]: no proliferation inhibiting activity |
| Nc1ccc2cc(S(=O)(=O)[O-])cc(O)c2c1N=Nc1ccc(-c2ccc(N=Nc3c(N)ccc4cc(S(=O)(=O)[O-])cc(O)c34)cc2)cc1.[Na+].[Na+] [chlorazol violet N] |  |  |  | active in the low μM range |  |
| Cc1cc(S(=O)(=O)[O-])ccc1N=Nc1ccc(N=Nc2c(O)ccc3cccc(S(=O)(=O)[O-])c23)c(C)c1.[Na+].[Na+] [crocein scarlet 7B] |  |  |  | active in the low μM range |  |
| mordant brown |  |  |  | active in the low μM range |  |
